# Biological target: T1, Gag-Pol polyprotein [600-1027,R876K]/[600-1155] (Human immunodeficiency virus 1, UniProt P03366, R876K)
# T1 construct: 600-1027; 600-1155
# Test: HIV-1 RT Assay
SMILES,"IC50 (pH 7.8, 22 °C)",IC50
O=C1Nc2c(CO)ccnc2N(C2CC2)c2ncccc21,3000 nM,–
"Nc1ccc(OCc2ccnc3c2NC(=O)c2cccnc2N3C2CC2)cc1 [7-(4-aminophenoxymethyl)-2-cyclopropyl-2,4,9,15-tetraazatricyclo[9.4.0.0^{3,8}]pentadeca-1(11),3,5,7,12,14-hexaen-10-one]",–,100 nM

# Source: BindingDB's records for doi:10.1021/jm00024a011 (Boehringer Ingelheim Pharmaceuticals, 1995)
